Like-named read-outs stand apart in the source and are kept apart here.
Tests used:
[1] = cited from earlier work
[2] = mode of iron excretion; cited from earlier work
[3] = rats, 300 μmol/kg intraperitoneally immediately after uranyl acetate; cited from earlier work
[4] = pH 7.4
Protocol: Measurements were taken via LC/MS.
To each 5 μL aliquot of stock solution of each sample was added 500 μL of PBS pH 7.4 and 500 μL of octanol and a stir bar. […] Stir bars were removed and samples centrifuged at 15,000 g for 15 minutes to separate the phases, and pipette and syringe were used to remove the upper (octanol) and lower (buffer) phases to empty tubes, respectively. Aliquots of 5 μL were taken from upper phases and diluted with 495 μL of methanol. Aliquots of 50 μL were taken from lower phases and diluted with 450 μL of methanol. Reference solutions of progesterone or metopolol were also prepared and tested as standards.

[5] = ratio of ICE in one species (monkey) to the other (rat)

SMILES	Rodent ICE [urine/bile] [2]	Primate ICE [urine/bile] ([1]; mode of iron excretion)	ICE Ratio [1, 5]	other results
COCCOCCOc1ccc(C2=N[C@@](C)(C(=O)O)CS2)c(O)c1 [Example A, (S)-2-(2-hydroxy-4-(2-(2-methoxyethoxy)ethoxy)phenyl)-4-methyl-4,5-dihydrothiazole-4-carboxylic acid]	[97/3]	–	–	ICE Ratio ([1]; primate (capsule) to rodent): 1.0; ICE Ratio ([1]; primate (sodium salt) to rodent): 1.1; Primate ICE [urine/bile] ([1]; given as capsule): [93/7]; Primate ICE [urine/bile] ([1]; given as sodium salt): [83/17]
COCCOCCOCCOc1cccc(C2=N[C@@](C)(C(=O)O)CS2)c1O [Example E, (S)-2-(2-hydroxy-3-(2-(2-(2-methoxyethoxy)ethoxy)ethoxy)phenyl)-4-methyl-4,5-dihydrothiazole-4-carboxylic acid]	[95/5]	[95/5]	2.2	–
COCCOCCOCCOCCOc1cccc(C2=N[C@@](C)(C(=O)O)CS2)c1O [Example F, (S)-2-(3-(2,5,8,11-tetraoxatridecan-13-yloxy)-2-hydroxyphenyl)-4-methyl-4,5-dihydrothiazole-4-carboxylic acid]	[98/2]	[25/75]	0.8	–
COCCOCCOCCOCCOc1ccc(C2=N[C@@](C)(C(=O)O)CS2)c(O)c1 [Example C, (S)-2-(4-(2,5,8,11-tetraoxatridecan-13-yloxy)-2-hydroxyphenyl)-4-methyl-4,5-dihydrothiazole-4-carboxylic acid]	[99/1]	[52/48]	0.8	–
COCCOCCOCCOc1ccc(C2=N[C@@](C)(C(=O)O)CS2)c(O)c1 [Example B, (S)-2-(2-hydroxy-4-(2-(2-(2-methoxyethoxy)ethoxy)ethoxy)phenyl)-4-methyl-4,5-dihydrothiazole-4-carboxylic acid]	[90/10]	[96/4]	4.6	Uranium Excretion [urine/bile] [3]: [35/65]
COCCOCCOc1cccc(C2=N[C@@](C)(C(=O)O)CS2)c1O [Example D, (S)-2-(2-hydroxy-3-(2-(2-methoxyethoxy)ethoxy)phenyl)-4-methyl-4,5-dihydrothiazole-4-carboxylic acid]	[99/1]	–	–	–
COCCc1ccc(OCC(O)CNC(C)C)cc1 (centres unmarked) [metopolol]	–	–	–	LogD [4]: −0.27

From patent US9045440B2, “Desazadesferrothiocin and desazadesferrothiocin polyether analogues as metal chelation agents” (FerroKin Biosciences, Inc., priority 2010, dated 2015)
